Reference: the NIST ThermoML archive (doi:10.1016/j.jct.2003.09.008)
Several values for one entry are separate records, joined by “and”; a condition that tells them apart may be missing. Equal values may be shown once.

Assay: mn = molality of the nth substance listed, in mol/kg
Details: 298.15 K, 101.33 kPa, Liquid

CCCC[N+](CCCC)(CCCC)CCCC.[Br-] [tetrabutylammonium bromide] + O
Details | mass density [kg/m3]
m1 = 0.0509 | 998.2
m1 = 0.1034 | 999.39
m1 = 0.2709 | 1003.18
m1 = 0.589 | 1010.09
m1 = 0.7318 | 1013.27

C[N+](C)(C)C.[Br-] [tetramethylammonium bromide] + O
Details | mass density
m1 = 0.2579 | 1006.85 kg/m3
m1 = 0.258 | 1006.83 kg/m3
m1 = 0.2581 | 1006.9 kg/m3
m1 = 0.532 | 1016.59 kg/m3
m1 = 0.5322 | 1016.42 kg/m3
m1 = 0.5325 | 1016.59 kg/m3
m1 = 0.8105 | 1025.86 kg/m3
m1 = 0.8239 | 1026.24 kg/m3
m1 = 1.134 | 1036.07 kg/m3 and 1035.72 kg/m3
m1 = 1.839 | 1046.9 kg/m3

CC[N+](CC)(CC)CC.[Br-] [tetraethylammonium bromide] + O
Details | mass density
m1 = 0.102 | 1000.71 kg/m3
m1 = 0.4023 | 1010.95 kg/m3
m1 = 0.549 | 1015.83 kg/m3
m1 = 1.212 | 1035.35 kg/m3 and 1035.67 kg/m3
